The target of experiment [1] is Protein kinase C theta type (Homo sapiens, UniProt Q04759). Briefly: Selectivity interaction (Kinase panel (Z-LYTE Assay)) EUB0001632a PRKCQ. The conditions noted are these: at 10 µM.
Experiment [2] concerns the target T1, Cyclin-dependent kinase 11A (Homo sapiens) (UniProt Q9UQ88).
T1 sequence (whole entry): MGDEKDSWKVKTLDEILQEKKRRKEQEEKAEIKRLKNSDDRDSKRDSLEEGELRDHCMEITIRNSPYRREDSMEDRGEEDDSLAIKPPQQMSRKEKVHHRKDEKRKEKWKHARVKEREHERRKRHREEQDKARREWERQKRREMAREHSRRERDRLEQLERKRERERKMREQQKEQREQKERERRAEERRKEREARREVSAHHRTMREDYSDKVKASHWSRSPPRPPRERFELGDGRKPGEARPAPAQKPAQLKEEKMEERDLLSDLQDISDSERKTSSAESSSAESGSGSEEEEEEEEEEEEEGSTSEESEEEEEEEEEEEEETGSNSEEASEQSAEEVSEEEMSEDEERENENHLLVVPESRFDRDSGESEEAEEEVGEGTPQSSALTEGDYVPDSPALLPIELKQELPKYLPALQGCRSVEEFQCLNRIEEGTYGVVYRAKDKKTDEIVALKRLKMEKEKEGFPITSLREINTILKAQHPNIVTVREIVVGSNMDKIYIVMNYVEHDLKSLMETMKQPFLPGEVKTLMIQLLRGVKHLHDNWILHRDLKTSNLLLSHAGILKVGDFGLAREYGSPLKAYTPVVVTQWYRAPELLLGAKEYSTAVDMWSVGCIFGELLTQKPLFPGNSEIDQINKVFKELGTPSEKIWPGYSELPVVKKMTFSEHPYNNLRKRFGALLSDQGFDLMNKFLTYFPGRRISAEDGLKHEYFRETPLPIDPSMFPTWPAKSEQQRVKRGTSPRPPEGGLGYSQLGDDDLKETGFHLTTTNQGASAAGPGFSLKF
To be noted: at 10 µM.

Experiment [3] deals with Tyrosine-protein kinase JAK1 (Homo sapiens, UniProt P23458). Briefly: Selectivity interaction (ActivX KiNativ screen (kinase selectivity in THP-1 cell lysates)) EUB0000639a JAK1. In kind it is subcellular. To be noted: lysate, at 0.2 µM.
Experiment [4] concerns the target T2, Serine/threonine-protein kinase D2 (Homo sapiens) (UniProt Q9BZL6).
T2 sequence (whole entry): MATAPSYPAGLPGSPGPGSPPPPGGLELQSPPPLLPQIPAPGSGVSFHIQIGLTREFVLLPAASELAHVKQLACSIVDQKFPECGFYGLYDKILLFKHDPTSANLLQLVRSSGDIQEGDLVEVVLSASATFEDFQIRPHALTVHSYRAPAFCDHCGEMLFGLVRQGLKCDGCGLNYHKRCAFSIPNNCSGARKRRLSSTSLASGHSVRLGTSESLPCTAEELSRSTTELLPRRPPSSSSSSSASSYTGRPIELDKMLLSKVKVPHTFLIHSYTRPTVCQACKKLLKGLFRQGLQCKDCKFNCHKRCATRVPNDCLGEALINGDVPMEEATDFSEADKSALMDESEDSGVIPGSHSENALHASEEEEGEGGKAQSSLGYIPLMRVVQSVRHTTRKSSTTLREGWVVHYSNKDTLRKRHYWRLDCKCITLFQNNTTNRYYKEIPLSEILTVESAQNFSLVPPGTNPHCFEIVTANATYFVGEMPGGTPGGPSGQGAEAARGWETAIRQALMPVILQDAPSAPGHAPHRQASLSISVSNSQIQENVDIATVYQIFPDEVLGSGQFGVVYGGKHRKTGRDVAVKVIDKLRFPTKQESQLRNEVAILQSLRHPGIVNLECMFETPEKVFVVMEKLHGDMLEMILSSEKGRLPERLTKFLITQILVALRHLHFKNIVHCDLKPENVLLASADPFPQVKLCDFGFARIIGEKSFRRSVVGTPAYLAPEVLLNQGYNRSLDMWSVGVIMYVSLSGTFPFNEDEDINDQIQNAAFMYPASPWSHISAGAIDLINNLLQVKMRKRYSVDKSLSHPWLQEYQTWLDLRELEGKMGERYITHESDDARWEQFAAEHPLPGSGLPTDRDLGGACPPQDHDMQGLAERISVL
Briefly: Selectivity interaction (Kinase panel (Invitrogen)) EUB0000639a PRKD2. To be noted: at 200 nM.

In experiment [5] the target is Wee1-like protein kinase (Homo sapiens) (UniProt P30291). The conditions noted are these: at 10 µM.
Experiment [6] concerns the target T3, Serine/threonine-protein kinase TAO1 (Homo sapiens) (UniProt Q7L7X3).
T3 sequence (whole entry): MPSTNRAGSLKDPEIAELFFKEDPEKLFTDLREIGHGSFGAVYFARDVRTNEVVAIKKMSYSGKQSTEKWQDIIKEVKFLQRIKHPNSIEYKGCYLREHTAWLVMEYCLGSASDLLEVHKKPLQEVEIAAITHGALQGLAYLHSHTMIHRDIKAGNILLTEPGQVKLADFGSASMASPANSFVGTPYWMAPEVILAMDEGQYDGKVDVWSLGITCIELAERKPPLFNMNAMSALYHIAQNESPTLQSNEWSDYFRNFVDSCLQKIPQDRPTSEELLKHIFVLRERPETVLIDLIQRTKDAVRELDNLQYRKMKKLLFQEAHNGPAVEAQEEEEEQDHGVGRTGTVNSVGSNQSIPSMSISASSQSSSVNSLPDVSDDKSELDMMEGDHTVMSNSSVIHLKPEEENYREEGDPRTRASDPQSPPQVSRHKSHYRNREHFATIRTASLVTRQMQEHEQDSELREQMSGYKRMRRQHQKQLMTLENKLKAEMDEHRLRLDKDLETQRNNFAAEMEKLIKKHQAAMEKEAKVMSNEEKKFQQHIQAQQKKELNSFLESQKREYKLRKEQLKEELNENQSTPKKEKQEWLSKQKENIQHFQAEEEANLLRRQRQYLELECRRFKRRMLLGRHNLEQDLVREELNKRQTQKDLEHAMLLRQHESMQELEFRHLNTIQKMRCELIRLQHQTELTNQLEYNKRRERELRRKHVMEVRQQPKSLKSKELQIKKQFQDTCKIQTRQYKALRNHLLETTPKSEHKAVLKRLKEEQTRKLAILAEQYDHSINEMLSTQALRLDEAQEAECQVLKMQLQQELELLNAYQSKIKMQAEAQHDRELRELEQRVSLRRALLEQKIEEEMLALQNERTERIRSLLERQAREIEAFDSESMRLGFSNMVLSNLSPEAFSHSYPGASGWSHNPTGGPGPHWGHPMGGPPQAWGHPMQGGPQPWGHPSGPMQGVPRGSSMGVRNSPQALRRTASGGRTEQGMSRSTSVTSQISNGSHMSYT
Briefly: Selectivity interaction (KinomeScan (DiscoverX)) EUB0000695a TAOK1. The conditions noted are these: at 100 nM.

Experiment [7] deals with Cyclin-dependent kinase 1/cyclin B (Homo sapiens) (UniProt P06493+P14635+Q8WWL7+O95067). Briefly: Selectivity interaction (Upstate Kinase Profiler service (Millipore)) EUB0000056c CDK1. The conditions noted are these: at 1 µM. In kind it is protein-complex assay.

Chain of Wee1-like protein kinase (Homo sapiens) (P30291 whole entry, looked up): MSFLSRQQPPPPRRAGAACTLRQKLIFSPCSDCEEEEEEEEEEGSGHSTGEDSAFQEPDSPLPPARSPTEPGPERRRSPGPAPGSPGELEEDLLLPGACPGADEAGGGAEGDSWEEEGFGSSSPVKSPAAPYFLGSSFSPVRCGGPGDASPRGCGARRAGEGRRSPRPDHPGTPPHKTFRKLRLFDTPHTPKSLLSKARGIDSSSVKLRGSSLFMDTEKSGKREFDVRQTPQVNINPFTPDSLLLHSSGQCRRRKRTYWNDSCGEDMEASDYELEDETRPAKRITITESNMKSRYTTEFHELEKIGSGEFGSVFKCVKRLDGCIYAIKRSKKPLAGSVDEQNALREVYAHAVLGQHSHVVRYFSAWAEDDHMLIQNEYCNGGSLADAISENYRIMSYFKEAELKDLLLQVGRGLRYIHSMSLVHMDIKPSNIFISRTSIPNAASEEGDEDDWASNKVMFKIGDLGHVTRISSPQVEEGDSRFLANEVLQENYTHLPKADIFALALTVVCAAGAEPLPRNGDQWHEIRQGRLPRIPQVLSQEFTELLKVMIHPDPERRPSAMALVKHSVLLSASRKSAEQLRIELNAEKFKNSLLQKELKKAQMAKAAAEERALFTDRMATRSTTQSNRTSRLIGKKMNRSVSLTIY
Chain of Tyrosine-protein kinase JAK1 (P23458 whole entry): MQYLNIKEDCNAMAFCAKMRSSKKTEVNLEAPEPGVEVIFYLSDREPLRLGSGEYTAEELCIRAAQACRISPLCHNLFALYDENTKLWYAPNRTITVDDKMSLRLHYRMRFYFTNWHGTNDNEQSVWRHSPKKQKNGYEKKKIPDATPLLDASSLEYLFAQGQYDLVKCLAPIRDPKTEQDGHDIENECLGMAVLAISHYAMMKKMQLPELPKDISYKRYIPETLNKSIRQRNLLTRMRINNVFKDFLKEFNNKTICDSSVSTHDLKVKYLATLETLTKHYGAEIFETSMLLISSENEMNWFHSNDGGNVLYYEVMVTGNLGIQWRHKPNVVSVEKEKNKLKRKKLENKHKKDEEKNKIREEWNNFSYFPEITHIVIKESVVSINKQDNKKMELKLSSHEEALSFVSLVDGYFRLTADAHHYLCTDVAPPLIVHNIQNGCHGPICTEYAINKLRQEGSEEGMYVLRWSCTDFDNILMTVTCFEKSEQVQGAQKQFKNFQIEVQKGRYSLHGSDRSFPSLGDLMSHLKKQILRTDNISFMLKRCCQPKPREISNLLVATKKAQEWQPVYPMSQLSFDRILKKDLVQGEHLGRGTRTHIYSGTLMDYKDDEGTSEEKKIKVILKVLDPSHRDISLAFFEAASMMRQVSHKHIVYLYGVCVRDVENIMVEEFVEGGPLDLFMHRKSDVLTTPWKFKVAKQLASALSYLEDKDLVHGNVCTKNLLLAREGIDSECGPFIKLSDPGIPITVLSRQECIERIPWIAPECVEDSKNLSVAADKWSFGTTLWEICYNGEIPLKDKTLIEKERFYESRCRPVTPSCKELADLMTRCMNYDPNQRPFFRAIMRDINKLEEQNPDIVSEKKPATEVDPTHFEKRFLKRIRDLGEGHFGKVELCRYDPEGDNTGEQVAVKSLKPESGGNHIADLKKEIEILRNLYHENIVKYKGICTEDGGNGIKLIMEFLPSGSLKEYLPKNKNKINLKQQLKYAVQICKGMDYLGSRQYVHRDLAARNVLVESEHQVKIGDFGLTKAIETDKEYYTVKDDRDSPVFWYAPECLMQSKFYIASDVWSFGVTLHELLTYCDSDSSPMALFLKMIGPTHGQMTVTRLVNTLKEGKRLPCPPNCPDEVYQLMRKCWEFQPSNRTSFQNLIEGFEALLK
Chain of Protein kinase C theta type (Q04759 whole entry, looked up): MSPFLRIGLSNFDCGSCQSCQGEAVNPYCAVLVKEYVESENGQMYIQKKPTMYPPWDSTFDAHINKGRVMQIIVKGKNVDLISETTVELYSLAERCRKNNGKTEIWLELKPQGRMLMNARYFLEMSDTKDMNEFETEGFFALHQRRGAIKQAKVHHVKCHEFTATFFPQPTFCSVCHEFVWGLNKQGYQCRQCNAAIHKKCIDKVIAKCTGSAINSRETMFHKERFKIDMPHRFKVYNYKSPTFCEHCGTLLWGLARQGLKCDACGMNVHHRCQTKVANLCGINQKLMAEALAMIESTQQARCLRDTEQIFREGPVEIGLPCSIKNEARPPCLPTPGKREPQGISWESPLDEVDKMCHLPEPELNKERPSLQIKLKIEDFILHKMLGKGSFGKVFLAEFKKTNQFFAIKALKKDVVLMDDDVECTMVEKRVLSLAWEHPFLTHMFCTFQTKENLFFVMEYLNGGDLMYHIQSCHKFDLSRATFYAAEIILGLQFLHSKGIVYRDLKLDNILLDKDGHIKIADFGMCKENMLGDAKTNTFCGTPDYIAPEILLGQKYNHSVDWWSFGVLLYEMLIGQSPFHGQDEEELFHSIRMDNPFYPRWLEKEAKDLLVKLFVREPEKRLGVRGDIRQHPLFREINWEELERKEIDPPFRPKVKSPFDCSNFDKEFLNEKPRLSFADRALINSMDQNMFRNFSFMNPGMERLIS

The compound `Cn1cc(-n2cnc3c(NCc4nc5cc(Cl)c(Cl)cc5[nH]4)nc(N4CCOCC4)nc32)cn1` registered a % of control in experiment [1] of 14.5%.

Regarding `Cc1cc([C@@H](C)Nc2ccccc2C(=O)O)c2nc(N3CCOCC3)cc(=O)n2c1` [AZD-6482], the % of control in experiment [2] came out at 100%.

For `CC[C@@H]1[C@H](F)C(=O)N[C@@H]1COc1nccc2cc(C(N)=O)c(OC)cc12` [ZIMLOVISERTIB], the % of inhibition in experiment [3] was -1.1%; in experiment [4], 5.6%.

For `CCN(CC)CCCCNc1ncc2cc(-c3cc(OC)cc(OC)c3)c(NC(=O)NC(C)(C)C)nc2n1`, the % of control in experiment [5] was determined as 100%.

`Cc1cc(F)c(C(=O)Nc2cccc(-c3nncn3C(C)C)n2)cc1-n1cnc(C2CC2)c1` had a % of control in experiment [6] of 100%.

Take `Cc1ccc(-c2ccc3c(ccc4sc5c(c43)NC[C@@H](C)NC5=O)n2)cn1`: the % of inhibition in experiment [7] amounted to 68%.

These data come from ChEMBL document CHEMBL5465560, “Selectivity Literature for EUbOPEN Chemogenomic Library” (2024).
